In patent publication US20220396569A1 (Carmot Therapeutics, Inc., priority 2021, published 2022):

What follows are compounds tested against T1, human GLP-1 receptor (Homo sapiens, UniProt P43220) (assay: GLP-1R cAMP Assay (HitHunter cAMP accumulation)). Details: cAMP accumulation, CHO cells stably overexpressing human GLP-1 receptor, 30 min treatment; read-out: EC50.
T1 construct: expressed in transfected cells
T1 sequence (P43220 24-463): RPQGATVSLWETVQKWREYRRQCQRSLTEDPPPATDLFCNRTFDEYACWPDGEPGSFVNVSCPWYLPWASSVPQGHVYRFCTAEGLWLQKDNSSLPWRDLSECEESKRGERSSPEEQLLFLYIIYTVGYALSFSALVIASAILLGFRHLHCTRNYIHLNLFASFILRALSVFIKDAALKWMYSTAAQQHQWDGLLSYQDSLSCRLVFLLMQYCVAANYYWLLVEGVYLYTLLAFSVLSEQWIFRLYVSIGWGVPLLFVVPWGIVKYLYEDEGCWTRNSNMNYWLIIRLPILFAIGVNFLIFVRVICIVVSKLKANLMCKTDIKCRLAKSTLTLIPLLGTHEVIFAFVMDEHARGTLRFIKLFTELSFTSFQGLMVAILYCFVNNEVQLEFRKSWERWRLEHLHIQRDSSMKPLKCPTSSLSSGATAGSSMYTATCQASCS
Format: cell-based
Method in brief: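 CHO cells stably expressing human GLP-1R, 10,000 cells/well in HBSS with 10 mM HEPES and 625 μM IBMX, were mixed with anti-cAMP antibody reagent. Compound was applied as a 20-point dose response in triplicate for 30 min. After lysis and overnight detection, luminescence was read and dose-response curves analysed.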
In the case of `C[C@H]1[C@@H](Oc2ccnc(COc3ccc(Cl)cc3F)n2)CN1Cc1nc2ccc(C(=O)O)cc2n1C[C@@H]1CCO1` [Compound 547, 2-{[(2S,3S)-3-({2-[(4-chloro-2-fluorophenoxy)methyl]pyrimidin-4-yl}oxy)-2-methylazetidin-1-yl]methyl}-1-{[(2S)-oxetan-2-yl]methyl}-1H-1,3-benzodiazole-6-carboxylic acid], the EC50 is reported as < 50 nM. `C[C@H]1[C@@H](Oc2ccnc(COc3ccc(F)cc3F)n2)CN1Cc1nc2ccc(C(=O)O)cc2n1C[C@@H]1CCO1` [Compound 548] was tested, and the EC50 was < 50 nM. For `C[C@H]1[C@@H](Oc2ccnc(COc3ccc(F)cc3C#N)n2)CN1Cc1nc2ccc(C(=O)O)cc2n1C[C@@H]1CCO1` [Compound 549, 2-{[(2S,3S)-3-({2-[(2-cyano-4-fluorophenoxy)methyl]pyrimidin-4-yl}oxy)-2-methylazetidin-1-yl]methyl}-1-{[(2S)-oxetan-2-yl]methyl}-1H-1,3-benzodiazole-6-carboxylic acid], the EC50 was > 500 nM. For `O=C(O)c1ccc2nc(CN3CC(Oc4ccnc(COc5ccc(F)cc5F)n4)C3)n(C[C@@H]3CCO3)c2c1` [Compound 550], the EC50 was < 50 nM. With `N#Cc1ccc(OCc2nccc(O[C@H]3C[C@@H](Cc4nc5ccc(C(=O)O)cc5n4C[C@@H]4CCO4)C3)n2)c(F)c1` [Compound 551] the EC50 was < 50 nM. For `O=C(O)c1ccc2nc(CN3CCC(c4cccc(Oc5ccccc5)c4)C3)n(C[C@@H]3CCO3)c2c1` (stereo partly drawn) [Example 119, 1-(((S)-Oxetan-2-yl)methyl)-2-((3-(3-phenoxyphenyl)pyrrolidin-1-yl)methyl)-1H-benzo[d]imidazole-6-carboxylic acid], the EC50 was 50 to 500 nM. In the case of `O=C(O)c1ccc2nc(CN3CCC(Cn4ccc(COc5ccc(Cl)cc5Cl)n4)CC3)n(C[C@@H]3CCO3)c2c1` [Example 127, (S)-2-((4-((3-((2,4-dichlorophenoxy)methyl)-1H-pyrazol-1-yl)methyl)piperidin-1-yl)methyl)-1-(oxetan-2-ylmethyl)-1H-benzo[d]imidazole-6-carboxylic acid], the EC50 is reported as < 50 nM. In the case of `CCn1cncc1Cn1c(CN2CC(Cc3cnc(COc4ccc(Cl)cc4Cl)o3)C2)nc2ccc(C(=O)O)cc21` [Example 147, 2-((3-((2-((2,4-Dichlorophenoxy)methyl)oxazol-5-yl)methyl)azetidin-1-yl)methyl)-1-((1-ethyl-1H-imidazol-5-yl)methyl)-1H-benzo[d]imidazole-6-carboxylic acid], the EC50 is reported as < 50 nM. `CC1(c2ccc(Cl)cn2)Oc2cccc(CC3CCN(Cc4nc5ccc(C(=O)O)cc5n4C[C@@H]4CCO4)CC3)c2O1` (stereo partly drawn) [Example 173, 2-((4-((2-(5-Chloropyridin-2-yl)-2-methylbenzo[d][1,3]dioxol-4-yl)methyl)piperidin-1-yl)methyl)-1-(((S)-oxetan-2-yl)methyl)-1H-benzo[d]imidazole-6-carboxylic acid] showed an EC50 of 50 to 500 nM. For `O=C(O)c1ccc2nc(CN3CC(Cc4ccnc(COc5ccc(Cl)cc5Cl)c4)C3)n(C[C@@H]3CCO3)c2c1` [Example 177, (S)-2-((3-((2-((2,4-Dichlorophenoxy)methyl)pyridin-4-yl)methyl)azetidin-1-yl)methyl)-1-(oxetan-2-ylmethyl)-1H-benzo[d]imidazole-6-carboxylic acid], the EC50 was < 50 nM. `O=C(O)c1ccc2nc(CN3CC(Oc4cccc(COc5ccc(Cl)cc5Cl)c4)C3)n(C[C@@H]3CCO3)c2c1` [Example 192, (S)-2-((3-(3-((2,4-Dichlorophenoxy)methyl)phenoxy)azetidin-1-yl)methyl)-1-(oxetan-2-ylmethyl)-1H-benzo[d]imidazole-6-carboxylic acid] was tested, and the EC50 was < 50 nM. In the case of `N#Cc1cc(Cl)ccc1OCc1cc(OC2CN(Cc3nc4ccc(C(=O)O)cc4n3C[C@@H]3CCO3)C2)ccn1` [Example 193, (S)-2-((3-((2-((4-Chloro-2-cyanophenoxy)methyl)pyridin-4-yl)oxy)azetidin-1-yl)methyl)-1-(oxetan-2-ylmethyl)-1H-benzo[d]imidazole-6-carboxylic acid], the EC50 is reported as < 50 nM. In the case of `CCn1cncc1Cn1c(CN2CC(Cc3cccc(COc4ccc(Cl)cc4Cl)c3)C2)nc2ccc(C(=O)O)cc21` [Example 197, 2-((3-(3-((2,4-Dichlorophenoxy)methyl)benzyl)azetidin-1-yl)methyl)-1-((1-ethyl-1H-imidazol-5-yl)methyl)-1H-benzo[d]imidazole-6-carboxylic acid], the EC50 is reported as < 50 nM. For `CC1(c2ccc(Cl)cc2F)Oc2cccc(CC3CCN(Cc4nc5ccc(C(=O)O)cc5n4C[C@@H]4CCO4)CC3)c2O1` (stereo partly drawn) [Example 201, 2-((4-((2-(4-Chloro-2-fluorophenyl)-2-methylbenzo[d][1,3]dioxol-4-yl)methyl)piperidin-1-yl)methyl)-1-(((S)-oxetan-2-yl)methyl)-1H-benzo[d]imidazole-6-carboxylic acid], the EC50 was 50 to 500 nM. For `O=C(O)c1ccc2nc(CN3CC(Oc4cnc(COc5ccc(Cl)cc5Cl)o4)C3)n(C[C@@H]3CCO3)c2c1` [Example 213, (S)-2-((3-((2-((2,4-Dichlorophenoxy)methyl)oxazol-5-yl)oxy)azetidin-1-yl)methyl)-1-(oxetan-2-ylmethyl)-1H-benzo[d]imidazole-6-carboxylic acid], the EC50 was < 50 nM. With `O=C(O)c1ccc2nc(CN3CC(Oc4ccnc(COc5ccc(Cl)cc5Cl)c4)C3)n(Cc3cnco3)c2c1` [Example 219, 2-((3-((2-((2,4-Dichlorophenoxy)methyl)pyridin-4-yl)oxy)azetidin-1-yl)methyl)-1-(oxazol-5-ylmethyl)-1H-benzo[d]imidazole-6-carboxylic acid] the EC50 was < 50 nM. With `CCn1cncc1Cn1c(CN2C[C@H](Oc3cccc(COc4ccc(Cl)cc4Cl)c3)[C@@H]2C)nc2ccc(C(=O)O)cc21` [Example 233, 2-(((2S,3S)-3-(3-((2,4-Dichlorophenoxy)methyl)phenoxy)-2-methylazetidin-1-yl)methyl)-1-((1-ethyl-1H-imidazol-5-yl)methyl)-1H-benzo[d]imidazole-6-carboxylic acid] the EC50 was < 50 nM. In the case of `CCn1cncc1Cn1c(CN2CC[C@H](Oc3ccnc(COc4ccc(Cl)cc4Cl)c3)C2)nc2ccc(C(=O)O)cc21` [Example 244, (S)-2-((3-((2-((2,4-Dichlorophenoxy)methyl)pyridin-4-yl)oxy)pyrrolidin-1-yl)methyl)-1-((1-ethyl-1H-imidazol-5-yl)methyl)-1H-benzo[d]imidazole-6-carboxylic acid], the EC50 is reported as < 50 nM. `CCn1cncc1Cn1c(CN2CCC(Cn3ccc(COc4ccc(Cl)cc4Cl)n3)CC2)nc2ccc(C(=O)O)cc21` [Example 281, 2-((4-((3-((2,4-Dichlorophenoxy)methyl)-1H-pyrazol-1-yl)methyl)piperidin-1-yl)methyl)-1-((1-ethyl-1H-imidazol-5-yl)methyl)-1H-benzo[d]imidazole-6-carboxylic acid] was tested, and the EC50 was < 50 nM. For `O=C(O)c1ccc2nc(CN3CC[C@H](Oc4ccnc(COc5ccc(Cl)cc5F)n4)C3)n(C[C@@H]3CCO3)c2c1` [Example 360, 2-(((S)-3-((2-((4-Chloro-2-fluorophenoxy)methyl)pyrimidin-4-yl)oxy)pyrrolidin-1-yl)methyl)-1-(((S)-oxetan-2-yl)methyl)-1H-benzo[d]imidazole-6-carboxylic acid], the EC50 was < 50 nM. `O=C(O)c1ccc2nc(CN3CCC(c4cccc(COc5ccc(Cl)cc5Cl)c4)C3)n(C[C@@H]3CCO3)c2c1` (stereo partly drawn) [Example 383, 2-((3-(3-((2,4-Dichlorophenoxy)methyl)phenyl)pyrrolidin-1-yl)methyl)-1-(((S)-oxetan-2-yl)methyl)-1H-benzo[d]imidazole-6-carboxylic acid] was tested, and the EC50 was < 50 nM. For `O=C(O)c1ccc2nc(CN3CC=C(c4cccc(COc5ccc(Cl)cc5Cl)n4)C3)n(C[C@@H]3CCO3)c2c1` [Example 384, (S)-2-((3-(6-((2,4-Dichlorophenoxy)methyl)pyridin-2-yl)-2,5-dihydro-1H-pyrrol-1-yl)methyl)-1-(oxetan-2-ylmethyl)-1H-benzo[d]imidazole-6-carboxylic acid], the EC50 was < 50 nM. In the case of `O=C(O)c1ccc2nc(CN3CCC(c4cccc(COc5ccc(Cl)cc5Cl)n4)C3)n(C[C@@H]3CCO3)c2c1` (stereo partly drawn) [Example 386, 2-((3-(6-((2,4-Dichlorophenoxy)methyl)pyridin-2-yl)pyrrolidin-1-yl)methyl)-1-(((S)-oxetan-2-yl)methyl)-1H-benzo[d]imidazole-6-carboxylic acid], the EC50 is reported as < 50 nM. In the case of `O=C(O)c1ccc2nc(CN3CC=C(c4cc(COc5ccc(Cl)cc5Cl)ccn4)C3)n(Cc3cnco3)c2c1` [Example 390, 2-((3-(4-((2,4-Dichlorophenoxy)methyl)pyridin-2-yl)-2,5-dihydro-1H-pyrrol-1-yl)methyl)-1-(oxazol-5-ylmethyl)-1H-benzo[d]imidazole-6-carboxylic acid], the EC50 is reported as < 50 nM. With `N#Cc1ccc(OCc2nccc(C3=CCN(Cc4nc5ccc(C(=O)O)cc5n4C[C@@H]4CCO4)C3)n2)c(F)c1` [Example 395, (S)-2-((3-(2-((4-Cyano-2-fluorophenoxy)methyl)pyrimidin-4-yl)-2,5-dihydro-1H-pyrrol-1-yl)methyl)-1-(oxetan-2-ylmethyl)-1H-benzo[d]imidazole-6-carboxylic acid] the EC50 was < 50 nM. `O=C(O)c1ccc2nc(CN3CC=C(c4cncc(COc5ccc(Cl)cc5F)n4)C3)n(C[C@@H]3CCO3)c2c1` [Example 396, (S)-2-((3-(6-((4-Chloro-2-fluorophenoxy)methyl)pyrazin-2-yl)-2,5-dihydro-1H-pyrrol-1-yl)methyl)-1-(oxetan-2-ylmethyl)-1H-benzo[d]imidazole-6-carboxylic acid] was tested, and the EC50 was < 50 nM. `O=C(O)c1ccc2nc(CN3CCC(c4cc(COc5ccc(Cl)cc5F)ccn4)C3)n(C[C@@H]3CCO3)c2c1` (stereo partly drawn) [Example 397, 2-((3-(4-((4-Chloro-2-fluorophenoxy)methyl)pyridin-2-yl)pyrrolidin-1-yl)methyl)-1-(((S)-oxetan-2-yl)methyl)-1H-benzo[d]imidazole-6-carboxylic acid] was tested, and the EC50 was < 50 nM.
